Reference: PubChem BioAssay (NCI)
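96-well plates; 48 h exposure; 5 concentrations. Endpoints by linear interpolation between flanking doses. Not reached: highest tested concentration assigned. TGI is the concentration that stops growth completely.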

How the values were obtained:
Assay in all cases: NCI anticancer screen, dose series, 48 h
[1] = test system: 786-0 renal
[2] = test system: A549 NSCLC
[3] = test system: ACHN renal
[4] = test system: HCC-2998 colon
[5] = test system: HCT-15 colon
[6] = test system: HL-60(TB) leukemia
[7] = test system: HS 578T breast
[8] = test system: HT29 colon
[9] = test system: IGROV1 ovarian
[10] = test system: KM12 colon
[11] = test system: MALME-3M melanoma
[12] = test system: MDA-N
[13] = test system: OVCAR-5 ovarian
[14] = test system: OVCAR-8 ovarian
[15] = test system: RXF 393 renal
[16] = test system: SF-295 CNS
[17] = test system: SK-MEL-5 melanoma
[18] = test system: SK-OV-3 ovarian
[19] = test system: UACC-257 melanoma
[20] = test system: UACC-62 melanoma

SMILES	TGI [1]	TGI [2]	TGI [3]	TGI [4]	TGI [5]	TGI [6]	TGI [7]	TGI [8]	TGI [9]	TGI [10]	TGI [11]	TGI [12]	TGI [13]	TGI [14]	TGI [15]	TGI [16]	TGI [17]	TGI [18]	TGI [19]	TGI [20]
OC(CNc1ccccn1)c1ccccc1 (stereo not drawn)	> 100 µM	> 100 µM	> 100 µM	> 100 µM	> 100 µM	> 100 µM	> 100 µM	> 100 µM	> 100 µM	> 100 µM	> 100 µM	> 100 µM	> 100 µM	> 100 µM	> 100 µM	> 100 µM	> 100 µM	> 100 µM	> 100 µM	> 100 µM
N#CSCC(Cl)=CCl (mixture of isomers)	> 100 µM	> 100 µM	> 100 µM	> 100 µM	> 100 µM	> 100 µM	> 100 µM	> 100 µM	> 100 µM	> 100 µM	> 100 µM	> 100 µM	> 100 µM	> 100 µM	> 100 µM	> 100 µM	> 100 µM	> 100 µM	> 100 µM	> 100 µM
CSc1c(C(=O)Nc2ccccc2)c(N)n(N)c(=O)c1C#N	> 100 µM	> 100 µM		> 100 µM	> 100 µM	> 100 µM	> 100 µM	> 100 µM	> 100 µM	> 100 µM	> 100 µM	> 100 µM	> 100 µM	> 100 µM	> 100 µM		> 100 µM	> 100 µM	> 100 µM	> 100 µM
COc1ccc(Cn2c(=O)c(OC)c(C)c3cc4ccccc4cc32)cc1	> 100 µM	> 100 µM	> 100 µM	63.5 µM	> 100 µM	46 µM	> 100 µM	> 100 µM	57 µM	> 100 µM	72.7 µM	> 100 µM	> 100 µM	> 100 µM	> 100 µM	> 100 µM	22.2 µM	> 100 µM	9.02 µM	69.9 µM
NC(=Nc1ccccc1Cl)c1ccccc1N	> 100 µM	> 100 µM	> 100 µM	> 100 µM	> 100 µM	> 100 µM	> 100 µM	> 100 µM	> 100 µM	> 100 µM	> 100 µM	> 100 µM	> 100 µM	> 100 µM	> 100 µM	> 100 µM	> 100 µM	> 100 µM	> 100 µM	> 100 µM
O=c1oc2ccccc2c(Nc2ccc3c(c2)Sc2ccccc2O3)c1[N+](=O)[O-]	53.1 µM	> 100 µM	44.7 µM	39.9 µM	> 100 µM	49.7 µM	> 100 µM	65.9 µM	> 100 µM	94.3 µM	65.7 µM	> 100 µM	> 100 µM	> 100 µM	61.9 µM	60.6 µM	32.4 µM	> 100 µM	55.7 µM	> 100 µM
